From ChEMBL document CHEMBL1201862, “PubChem BioAssay data set” (2004)
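Growth conditions: 96-well plates. Treatment: test compound, 48 hours, 5 concentrations. Analysis: linear interpolation between bracketing concentrations; unreached endpoints set to highest concentration. The concentration for 50% growth inhibition is given as GI50.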 The source made the active and inactive calls. No stated cut-off is given here; in the data, active = GI50 up to about 1.1 µM and inactive = higher.

Assays:
Assay in all cases: growth of human tumour cells (NCI), 48 h
OVCAR-3 = test system: OVCAR-3
SR = test system: SR
SK-MEL-5 = test system: SK-MEL-5
A549 = test system: A549
NCI-H23 = test system: NCI-H23
Hs-578T = test system: Hs-578T
NCI-H226 = test system: NCI-H226
BT-549 = test system: BT-549
SK-MEL-28 = test system: SK-MEL-28
HL-60 = test system: HL-60
SK-MEL-2 = test system: SK-MEL-2
HT-29 = test system: HT-29
MDA-MB-231 = test system: MDA-MB-231
CCRF-CEM = test system: CCRF-CEM
NCI-H460 = test system: NCI-H460
COLO 205 = test system: COLO 205
NCI-H522 = test system: NCI-H522
K562 = test system: K562
MDA-N = test system: MDA-N
U-251 = test system: U-251
HCC 2998 = test system: HCC 2998
ACHN = test system: ACHN
TK-10 = test system: TK-10
DU-145 = test system: DU-145
EKVX = test system: EKVX
MOLT-4 = test system: MOLT-4
UACC-257 = test system: UACC-257
SN12C = test system: SN12C
MDA-MB-435 = test system: MDA-MB-435
Malme-3M = test system: Malme-3M
UACC-62 = test system: UACC-62
IGROV-1 = test system: IGROV-1
SF-539 = test system: SF-539
A498 = test system: A498
HOP-62 = test system: HOP-62
M14 = test system: M14
HOP-92 = test system: HOP-92
SW-620 = test system: SW-620
LOX IMVI = test system: LOX IMVI
CAKI-1 = test system: CAKI-1
RPMI-8226 = test system: RPMI-8226
SNB-75 = test system: SNB-75
SF-295 = test system: SF-295
MCF7 = test system: MCF7
HCT-15 = test system: HCT-15
UO-31 = test system: UO-31
HCT-116 = test system: HCT-116
KM12 = test system: KM12
SNB-19 = test system: SNB-19
SF-268 = test system: SF-268
RXF 393 = test system: RXF 393
T47D = test system: T47D
PC-3 = test system: PC-3
OVCAR-5 = test system: OVCAR-5
SK-OV-3 = test system: SK-OV-3
NCI/ADR-RES = test system: NCI/ADR-RES
OVCAR-8 = test system: OVCAR-8
OVCAR-4 = test system: OVCAR-4
786-0 = test system: 786-0

Compound: CC1C(NNC(N)=O)Oc2cc3c(cc2C1c1ccccc1O)OCO3 (centres undefined)
- GI50 (OVCAR-3): 33.1 µM (inactive)
- GI50 (SR): 15 µM (inactive)
- GI50 (SK-MEL-5): 27.4 µM (inactive)
- GI50 (A549): 31.8 µM (inactive)
- GI50 (NCI-H23): 89.9 µM (inactive)
- GI50 (Hs-578T): 25.3 µM (inactive)
- GI50 (NCI-H226): 34.6 µM (inactive)
- GI50 (BT-549): 52.6 µM (inactive)
- GI50 (SK-MEL-28): 31 µM (inactive)
- GI50 (HL-60): 14.9 µM (inactive)
- GI50 (SK-MEL-2): 35.6 µM (inactive)
- GI50 (HT-29): 34 µM (inactive)
- GI50 (MDA-MB-231): 55.7 µM (inactive)
- GI50 (CCRF-CEM): 15.6 µM (inactive)
- GI50 (NCI-H460): 38.8 µM (inactive)
- GI50 (COLO 205): > 10 µM (inactive)
- GI50 (NCI-H522): 14.8 µM (inactive)
- GI50 (K562): 22.2 µM (inactive)
- GI50 (MDA-N): 22.3 µM (inactive)
- GI50 (U-251): 38.7 µM (inactive)
- GI50 (HCC 2998): 84.3 µM (inactive)
- GI50 (ACHN): 39.5 µM (inactive)
- GI50 (TK-10): 46 µM (inactive)
- GI50 (DU-145): 49.7 µM (inactive)
- GI50 (EKVX): 66.8 µM (inactive)
- GI50 (MOLT-4): 30 µM (inactive)
- GI50 (UACC-257): 35.7 µM (inactive)
- GI50 (SN12C): 48.3 µM (inactive)
- GI50 (MDA-MB-435): 20.5 µM (inactive)
- GI50 (Malme-3M): 28.6 µM (inactive)
- GI50 (UACC-62): 30.4 µM (inactive)
- GI50 (IGROV-1): 26.3 µM (inactive)
- GI50 (SF-539): 24.2 µM (inactive)
- GI50 (A498): 25.9 µM (inactive)
- GI50 (HOP-62): 31.3 µM (inactive)
- GI50 (M14): 39.3 µM (inactive)
- GI50 (HOP-92): 16.5 µM (inactive)
- GI50 (SW-620): 16.6 µM (inactive)
- GI50 (LOX IMVI): 46.7 µM (inactive)
- GI50 (CAKI-1): 29.5 µM (inactive)
- GI50 (RPMI-8226): 21.5 µM (inactive)
- GI50 (SNB-75): 27.9 µM (inactive)
- GI50 (SF-295): 27 µM (inactive)
- GI50 (MCF7): 36.8 µM (inactive)
- GI50 (HCT-15): 33.6 µM
- GI50 (UO-31): 52.5 µM (inactive)
- GI50 (HCT-116): 26.2 µM (inactive)
- GI50 (KM12): 31.2 µM (inactive)
- GI50 (SNB-19): 91 µM (inactive)
- GI50 (SF-268): 39.6 µM (inactive)
- GI50 (RXF 393): 23.8 µM (inactive)
- GI50 (T47D): 38.6 µM (inactive)
- GI50 (PC-3): 24.5 µM (inactive)
- GI50 (OVCAR-5): > 100 µM (inactive)
- GI50 (SK-OV-3): 41.4 µM (inactive)

Compound: C[C@@]1(OC(=O)c2cc([N+](=O)[O-])cc([N+](=O)[O-])c2)C[C@@H]2CCCC[C@@H]21
- GI50 (SR): > 100 µM (inactive)
- GI50 (SK-MEL-5): 83.8 µM (inactive)
- GI50 (A549): > 100 µM (inactive)
- GI50 (NCI-H23): > 100 µM (inactive)
- GI50 (Hs-578T): 41.8 µM (inactive)
- GI50 (NCI-H226): > 100 µM (inactive)
- GI50 (BT-549): > 100 µM (inactive)
- GI50 (SK-MEL-28): > 100 µM (inactive)
- GI50 (HL-60): > 100 µM (inactive)
- GI50 (SK-MEL-2): > 100 µM (inactive)
- GI50 (HT-29): > 100 µM (inactive)
- GI50 (NCI/ADR-RES): > 100 µM (inactive)
- GI50 (MDA-MB-231): > 100 µM (inactive)
- GI50 (CCRF-CEM): > 100 µM (inactive)
- GI50 (NCI-H460): > 100 µM (inactive)
- GI50 (COLO 205): > 100 µM (inactive)
- GI50 (NCI-H522): > 100 µM (inactive)
- GI50 (K562): > 100 µM (inactive)
- GI50 (MDA-N): > 100 µM (inactive)
- GI50 (U-251): > 100 µM (inactive)
- GI50 (HCC 2998): > 100 µM (inactive)
- GI50 (OVCAR-8): > 100 µM (inactive)
- GI50 (ACHN): > 100 µM (inactive)
- GI50 (TK-10): > 100 µM (inactive)
- GI50 (DU-145): > 100 µM (inactive)
- GI50 (EKVX): > 100 µM (inactive)
- GI50 (MOLT-4): > 100 µM (inactive)
- GI50 (UACC-257): > 100 µM (inactive)
- GI50 (SN12C): > 100 µM (inactive)
- GI50 (Malme-3M): 58.3 µM (inactive)
- GI50 (UACC-62): > 100 µM (inactive)
- GI50 (IGROV-1): > 100 µM (inactive)
- GI50 (OVCAR-4): > 100 µM (inactive)
- GI50 (SF-539): > 100 µM (inactive)
- GI50 (HOP-62): > 100 µM (inactive)
- GI50 (M14): > 100 µM (inactive)
- GI50 (SW-620): > 100 µM (inactive)
- GI50 (LOX IMVI): > 100 µM (inactive)
- GI50 (CAKI-1): > 100 µM (inactive)
- GI50 (RPMI-8226): 31.6 µM (inactive)
- GI50 (SNB-75): 48.2 µM (inactive)
- GI50 (SF-295): 66.4 µM (inactive)
- GI50 (MCF7): > 100 µM (inactive)
- GI50 (HCT-15): > 100 µM
- GI50 (UO-31): > 100 µM (inactive)
- GI50 (HCT-116): > 100 µM (inactive)
- GI50 (KM12): > 100 µM (inactive)
- GI50 (SNB-19): > 100 µM (inactive)
- GI50 (SF-268): > 100 µM (inactive)
- GI50 (786-0): > 100 µM (inactive)
- GI50 (T47D): > 100 µM (inactive)
- GI50 (PC-3): > 100 µM (inactive)
- GI50 (OVCAR-5): > 100 µM (inactive)
- GI50 (SK-OV-3): > 100 µM (inactive)
